This note sets out measurements from article PMC5025730.

Each structure is given as a SMILES string.

The nature of series [1]: CuAAC macrocyclisation (azide + terminal alkyne to 1,4-triazole); CuI 2 eq, DIPEA 3 eq; yield includes preceding coupling step on crude precursor. As to conditions: the molecule shown is the open-chain precursor, THF, 1.0 mM, 66.0 °C, 2 steps.
A short description of series [2]: RuAAC macrocyclisation (azide + terminal alkyne to 1,5-triazole); [Cp*RuCl]4 0.1 eq (more for 30b, 31b). The settings on record: the molecule shown is the open-chain precursor, THF, 1.0 mM, 66.0 °C.
Series [3] can be described thus: CuAAC macrocyclisation (azide + terminal alkyne to 1,4-triazole); CuI 2 eq, DIPEA 3 eq. As to conditions: THF, 1.0 mM, 66.0 °C.
The nature of series [4]: RuAAC macrocyclisation (azide + terminal alkyne to 1,5-triazole); [Cp*RuCl]4 0.1 eq (0.2 eq for 28b); yield includes preceding coupling step on crude precursor. The settings on record: the molecule shown is the open-chain precursor, THF, 1.0 mM, 66.0 °C, 2 steps.

For `C#CCN(CC(=O)OCCC(F)(F)C(F)(F)C(F)(F)C(F)(F)C(F)(F)C(F)(F)C(F)(F)C(F)(F)F)C(=O)c1cccc(N(C(=O)CCCCCCCN=[N+]=[N-])C(C(=O)NC2CCCCC2)c2ccc(Br)cc2)c1` (stereo not shown) [17b -> 29a (over two steps from 2)], the ring closure, yield over several steps in series [1] (18-membered ring) was found to be 24%.
Same read-out and setting: next, `C#CCN(CC(=O)OCCC(F)(F)C(F)(F)C(F)(F)C(F)(F)C(F)(F)C(F)(F)C(F)(F)C(F)(F)F)C(=O)c1ccc2c(c1)N[C@H](c1cccc(CCCCN=[N+]=[N-])c1)[C@H]1CCCO[C@@H]21` [21b -> 25b (from 21b/21c mixture, over two steps from 2)]: 4%.
As for `C#CCN(CC(=O)OCCC(F)(F)C(F)(F)C(F)(F)C(F)(F)C(F)(F)C(F)(F)C(F)(F)C(F)(F)F)C(=O)c1cccc(N2C=CC(=O)CC2c2cccc(CCCCN=[N+]=[N-])c2)c1` (stereo not shown) [19 -> 32b], the ring closure, isolated yield in series [2] (17-membered ring, 48.0 h) is 19%.
Regarding `O=C1CCc2cccc(c2)NC(=O)NCCc2ccc(cc2)-n2cc(nn2)CN(CC(=O)OCCC(F)(F)C(F)(F)C(F)(F)C(F)(F)C(F)(F)C(F)(F)C(F)(F)C(F)(F)F)C(=O)c2cccc(c2)N1` [13 -> 26a], in series [3] (from C#CCN(CC(=O)OCCC(F)(F)C(F)(F)C(F)(F)C(F)(F)C(F)(F)C(F)(F)C(F)(F)C(F)(F)F)C(=O)c1cccc(NC(=O)CCc2cccc(NC(=O)NCCc3ccc(N=[N+]=[N-])cc3)c2)c1, 25-membered ring, 36.0 h), the ring closure, isolated yield was 60%.
With `C#CCN(CC(=O)OCCC(F)(F)C(F)(F)C(F)(F)C(F)(F)C(F)(F)C(F)(F)C(F)(F)C(F)(F)F)C(=O)c1cccc(NC(=O)CCc2cccc(NC(=O)NCCc3ccc(NC(=O)N[C@@H](CCCCN=[N+]=[N-])C(=O)N(C)C)cc3)c2)c1` [14 -> 27a (over two steps from 13)], the ring closure, yield over several steps in series [1] (33-membered ring, 24.0 h) stood at 31%.
On to `CN(C)C(=O)[C@@H]1CCCCn2cc(nn2)CN(CC(=O)OCCC(F)(F)C(F)(F)C(F)(F)C(F)(F)C(F)(F)C(F)(F)C(F)(F)C(F)(F)F)C(=O)c2cccc(c2)NC(=O)N1` [6 -> 24a], for which, in series [3] (from C#CCN(CC(=O)OCCC(F)(F)C(F)(F)C(F)(F)C(F)(F)C(F)(F)C(F)(F)C(F)(F)C(F)(F)F)C(=O)c1cccc(NC(=O)N[C@@H](CCCCN=[N+]=[N-])C(=O)N(C)C)c1, 17-membered ring), the ring closure, isolated yield amounted to 70%.
Turning to `C#CCN(CC(=O)OCCC(F)(F)C(F)(F)C(F)(F)C(F)(F)C(F)(F)C(F)(F)C(F)(F)C(F)(F)F)C(=O)c1cccc(NC(C#N)c2cccc(CCCCN=[N+]=[N-])c2)c1` (stereo not shown) [22 -> 34 (over two steps from 2)], in series [1] (18-membered ring), the ring closure, yield over several steps came to 71%.
`C#CCN(CC(=O)OCCC(F)(F)C(F)(F)C(F)(F)C(F)(F)C(F)(F)C(F)(F)C(F)(F)C(F)(F)F)C(=O)c1cccc2c1[C@@H]1OCCC[C@@H]1[C@H](c1cccc(CCCCN=[N+]=[N-])c1)N2` [21c -> 25c (from 21b/21c mixture, over two steps from 2)]: in series [1] (18-membered ring), the ring closure, yield over several steps was found to be 7%.
On to `C#CCN(CC(=O)OCCC(F)(F)C(F)(F)C(F)(F)C(F)(F)C(F)(F)C(F)(F)C(F)(F)C(F)(F)F)C(=O)c1cccc(N(C(=O)CCCCCCCN=[N+]=[N-])C(C(=O)NC2CCCCC2)c2ccccc2)c1` (stereo not shown) [17a -> 28b (over two steps from 2)], for which the ring closure, yield over several steps in series [4] (17-membered ring, 48.0 h) worked out at 47%.
In the case of `O=C(CN1Cc2cn(nn2)CCCCc2cccc(c2)[C@H]2Nc3cc(ccc3[C@H]3OCCC[C@@H]23)C1=O)OCCC(F)(F)C(F)(F)C(F)(F)C(F)(F)C(F)(F)C(F)(F)C(F)(F)C(F)(F)F` [21a -> 25a (calculated 0.012/0.021 mmol)], the ring closure, isolated yield in series [3] (from C#CCN(CC(=O)OCCC(F)(F)C(F)(F)C(F)(F)C(F)(F)C(F)(F)C(F)(F)C(F)(F)C(F)(F)F)C(=O)c1ccc2c(c1)N[C@H](c1cccc(CCCCN=[N+]=[N-])c1)[C@@H]1CCCO[C@H]21, 18-membered ring) amounted to 57%.
Regarding `O=C(CN1Cc2cn(nn2)CCCCc2cccc(c2)[C@H]2[C@@H]3CC[C@H](CC3=O)N2c2cccc(c2)C1=O)OCCC(F)(F)C(F)(F)C(F)(F)C(F)(F)C(F)(F)C(F)(F)C(F)(F)C(F)(F)F` [20 -> 33 (exo azabicyclooctanone)], in series [3] (from C#CCN(CC(=O)OCCC(F)(F)C(F)(F)C(F)(F)C(F)(F)C(F)(F)C(F)(F)C(F)(F)C(F)(F)F)C(=O)c1cccc(N2[C@@H]3CC[C@H](C(=O)C3)[C@@H]2c2cccc(CCCCN=[N+]=[N-])c2)c1, 18-membered ring), the ring closure, isolated yield came to 65%.
In the case of `C#CCN(CC(=O)OCCC(F)(F)C(F)(F)C(F)(F)C(F)(F)C(F)(F)C(F)(F)C(F)(F)C(F)(F)F)C(=O)c1cccc(N2C(=O)[C@H](OC)[C@@H]2c2cccc(CCCCN=[N+]=[N-])c2)c1` [18a -> 30b (cis beta-lactam)], in series [2] (17-membered ring, 48.0 h), the ring closure, isolated yield was 33%.
On to `O=C1C=CN2c3cccc(c3)C(=O)N(CC(=O)OCCC(F)(F)C(F)(F)C(F)(F)C(F)(F)C(F)(F)C(F)(F)C(F)(F)C(F)(F)F)Cc3cn(nn3)CCCCc3cccc(c3)C2C1` (stereo not shown) [19 -> 32a], for which the ring closure, isolated yield in series [3] (from C#CCN(CC(=O)OCCC(F)(F)C(F)(F)C(F)(F)C(F)(F)C(F)(F)C(F)(F)C(F)(F)C(F)(F)F)C(=O)c1cccc(N2C=CC(=O)CC2c2cccc(CCCCN=[N+]=[N-])c2)c1, 18-membered ring, 20.0 h) was found to be 33%.
`C#CCN(CC(=O)OCCC(F)(F)C(F)(F)C(F)(F)C(F)(F)C(F)(F)C(F)(F)C(F)(F)C(F)(F)F)C(=O)c1cccc(NC(=O)N[C@@H](CCCCN=[N+]=[N-])C(=O)N(C)C)c1` [6 -> 24b]: the ring closure, isolated yield in series [2] (16-membered ring, 6.0 h) worked out at 33%.
With `O=C(CN1Cc2cn(nn2)CCCCc2cccc(c2)[C@@H]2Nc3cccc(c3[C@H]3OCCC[C@H]32)C1=O)OCCC(F)(F)C(F)(F)C(F)(F)C(F)(F)C(F)(F)C(F)(F)C(F)(F)C(F)(F)F` [21d -> 25d (calculated 0.011/0.017 mmol)], the ring closure, isolated yield in series [3] (from C#CCN(CC(=O)OCCC(F)(F)C(F)(F)C(F)(F)C(F)(F)C(F)(F)C(F)(F)C(F)(F)C(F)(F)F)C(=O)c1cccc2c1[C@H]1OCCC[C@H]1[C@H](c1cccc(CCCCN=[N+]=[N-])c1)N2, 18-membered ring) turned out to be 65%.
With `C#CCN(CC(=O)OCCC(F)(F)C(F)(F)C(F)(F)C(F)(F)C(F)(F)C(F)(F)C(F)(F)C(F)(F)F)C(=O)c1cccc(N2C(=O)[C@H](OC)[C@H]2c2cccc(CCCCN=[N+]=[N-])c2)c1` [18b -> 31b (trans beta-lactam)], in series [2] (17-membered ring, 96.0 h), the ring closure, isolated yield amounted to 7%.
With `CO[C@H]1C(=O)N2c3cccc(c3)C(=O)N(CC(=O)OCCC(F)(F)C(F)(F)C(F)(F)C(F)(F)C(F)(F)C(F)(F)C(F)(F)C(F)(F)F)Cc3cn(nn3)CCCCc3cccc(c3)[C@@H]12` [18a -> 30a (cis beta-lactam)], in series [3] (from C#CCN(CC(=O)OCCC(F)(F)C(F)(F)C(F)(F)C(F)(F)C(F)(F)C(F)(F)C(F)(F)C(F)(F)F)C(=O)c1cccc(N2C(=O)[C@H](OC)[C@@H]2c2cccc(CCCCN=[N+]=[N-])c2)c1, 18-membered ring, 24.0 h), the ring closure, isolated yield came to 61%.
For the compound `C#CCN(CC(=O)OCCC(F)(F)C(F)(F)C(F)(F)C(F)(F)C(F)(F)C(F)(F)C(F)(F)C(F)(F)F)C(=O)c1cccc(NC(=O)CCc2cccc(NC(=O)NCCc3ccc(N=[N+]=[N-])cc3)c2)c1` [13 -> 26b], the ring closure, isolated yield in series [2] (24-membered ring, 5.0 h) was 54%.
As for `C#CCN(CC(=O)OCCC(F)(F)C(F)(F)C(F)(F)C(F)(F)C(F)(F)C(F)(F)C(F)(F)C(F)(F)F)C(=O)c1cccc(N(C(=O)CCCCCCCN=[N+]=[N-])C(C(=O)NC2CCCCC2)c2ccccc2)c1` (stereo not shown) [17a -> 28a (over two steps from 2)], the ring closure, yield over several steps in series [1] (18-membered ring) came to 18%.
As for `CO[C@H]1C(=O)N2c3cccc(c3)C(=O)N(CC(=O)OCCC(F)(F)C(F)(F)C(F)(F)C(F)(F)C(F)(F)C(F)(F)C(F)(F)C(F)(F)F)Cc3cn(nn3)CCCCc3cccc(c3)[C@H]12` [18b -> 31a (trans beta-lactam)], in series [3] (from C#CCN(CC(=O)OCCC(F)(F)C(F)(F)C(F)(F)C(F)(F)C(F)(F)C(F)(F)C(F)(F)C(F)(F)F)C(=O)c1cccc(N2C(=O)[C@H](OC)[C@H]2c2cccc(CCCCN=[N+]=[N-])c2)c1, 18-membered ring, 24.0 h), the ring closure, isolated yield is 91%.
For the compound `C#CCN(CC(=O)OCCC(F)(F)C(F)(F)C(F)(F)C(F)(F)C(F)(F)C(F)(F)C(F)(F)C(F)(F)F)C(=O)c1cccc(NC(=O)CCc2cccc(NC(=O)NCCc3ccc(NC(=O)N[C@@H](CCCCN=[N+]=[N-])C(=O)N(C)C)cc3)c2)c1` [14 -> 27b (over two steps from 13)], the ring closure, yield over several steps in series [4] (32-membered ring, 24.0 h) worked out at 12%.
For the compound `C#CCN(CC(=O)OCCC(F)(F)C(F)(F)C(F)(F)C(F)(F)C(F)(F)C(F)(F)C(F)(F)C(F)(F)F)C(=O)c1cccc(N(C(=O)CCCCCCCN=[N+]=[N-])C(C(=O)NC2CCCCC2)c2ccc(Br)cc2)c1` (stereo not shown) [17b -> 29b (over two steps from 2)], the ring closure, yield over several steps in series [4] (17-membered ring) is 78%.
